This note sets out measurements from patent US20160219881A1, “HERBICIDALLY ACTIVE 2-HALOGEN-4-ALKYNYL-PHENYL-PYRAZOLIDINE-DIONE OR PYRROLIDINE-DIONE DERIVATIVES” (SYNGENTA LIMITED, priority 2013, published 2016).

Common to all, as to assay type: in vivo
Test [1] relates to Amaranthus retroflexus (AMARE). As to the kind of experiment: Test 1A glasshouse assay, pre-emergence herbicidal activity. Conditions: 312 h, 13 days after application, read-out: Pre-Emergence Herbicidal Activity (% Phytotoxicity) AMARE. The method, then:
(§1) Seeds of a variety of test species are sown in standard soil (usually sandy soil) in pots. After cultivation for one day (pre-emergence) or after 8 days cultivation (post-emergence) under controlled conditions in a glasshouse (at 24/16° C., day/night; 14 hours light; 65% humidity), the plants are sprayed with an aqueous spray solution derived from the formulation of the technical active ingredient (compound) in acetone/water (50:50) solution containing 0.5% Tween 20 (polyoxyethylene sorbitan monolaurate, CAS RN 9005-64-5). The test plants are then grown under controlled conditions in a glasshouse (at 24/16° C., day/night; 14 hours light; 65% humidity) and watered twice daily. 13 days after application of the test compounds, for pre- and post-emergence, the test is evaluated visually for percentage phytotoxicity to each plant (where 100%=total damage to plant; 0%=no damage to plant).
(§2) Alopecurus myosuroides (ALOMY), Setaria faberi (SETFA), Echinochloa crus-galli (ECHCG), Amaranthus retroflexus (AMARE), and Abutilon theophasti Medik. (ABUTH, common English name “velvetleaf”). Of these, Alopecurus myosuroides (ALOMY), Setaria faberi (SETFA), and Echinochloa crus-galli (ECHCG) are grassy monocotyledonous weeds.

For test [2], the system named is Setaria faberi (SETFA). The test is described as above. Particulars: 312 h, 13 days after application, read-out: Pre-Emergence Herbicidal Activity (% Phytotoxicity) SET FA. The method, then: as §1, §2
The subject of test [3] is Alopecurus myosuroides (ALOMY). The test is described as above. Particulars: 312 h, 13 days after application, read-out: Pre-Emergence Herbicidal Activity (% Phytotoxicity) ALOMY. As for the experimental part: as §1, §2
Lolium perenne (LOLPE), Triticum aestivum (TRZAW, winter wheat), Alopecurus myosuroides (ALOMY), Echinochloa crus-galli (ECHCG), and Avena fatua (AVEFA). All these are grassy monocotyledonous weeds and/or (for wheat) grassy crops.

The subject of test [4] is Echinochloa crus-galli (ECHCG). The description is as above. Conditions: 312 h, 13 days after application, read-out: Pre-Emergence Herbicidal Activity (% Phytotoxicity) ECHCG. The method, then:
as §1
(§3) Alopecurus myosuroides (ALOMY), Setaria faberi (SETFA), Echinochloa crus-galli (ECHCG), Amaranthus retroflexus (AMARE), and Abutilon theophasti Medik. (ABUTH, common English name “velvetleaf”). Of these, Alopecurus myosuroides (ALOMY), Setaria faberi (SETFA), and Echinochloa crus-galli (ECHCG) are grassy monocotyledonous weeds. […]

Test [5] deals with Abutilon theophasti Medik. (ABUTH). Nature of the test: Test 1A glasshouse assay, post-emergence herbicidal activity. Particulars: 312 h, 13 days after application, read-out: Post-Emergence Herbicidal Activity (% Phytotoxicity) ABUTH. As for the experimental part:
as §1, §2

In test [6] the test system is Amaranthus retroflexus (AMARE). The test is described as above. Particulars: 312 h, 13 days after application, read-out: Post-Emergence Herbicidal Activity (% Phytotoxicity) AMARE. As for the experimental part:
as §1, §2

Test [7] concerns Setaria faberi (SETFA). The test is described as above. Particulars: 312 h, 13 days after application, read-out: Post-Emergence Herbicidal Activity (% Phytotoxicity) SET FA. As for the experimental part: as §1, §2
The test system of test [8] is Alopecurus myosuroides (ALOMY). The test is described as above. Particulars: 312 h, 13 days after application, read-out: Post-Emergence Herbicidal Activity (% Phytotoxicity) ALOMY. As for the experimental part: as §1, §3
The subject of test [9] is Echinochloa crus-galli (ECHCG). Described as above. Conditions: 312 h, 13 days after application, read-out: Post-Emergence Herbicidal Activity (% Phytotoxicity) ECHCG. As for the experimental part:
as §1, §3

For test [10], the system named is Abutilon theophasti Medik. (ABUTH). Nature of the test: Test 1A glasshouse assay, pre-emergence herbicidal activity. Particulars: 312 h, 13 days after application, read-out: Pre-Emergence Herbicidal Activity (% Phytotoxicity) ABUTH. The method, then: as §1, §2

Take `CC#Cc1ccc(C2C(=O)N(C)N(C)C2=O)c(C)c1` [Compound A2]: the inhibition at 250 g/ha in test [1] amounted to 10%; in the test on Setaria faberi (SETFA) [2], 90%; in test [3], 80%; in test [4], 70%; in [5], 10%; in test [6], 100%. Besides, the inhibition at 250 g/ha in the test on Setaria faberi (SETFA) [7] came out at 80%; in test [8] it was 70%; in [9], 90%.
In the case of `CC#Cc1cc(OC)c(C2C(=O)N(C)N(C)C2=O)c(OC)c1` [Compound A5], the inhibition at 250 g/ha in [10] amounted to 0%; in [1], 10%; with Setaria faberi (SETFA) [2] it was 100%; in [3], 90%; in test [4], 90%; in test [5], 0%. The inhibition at 250 g/ha in [6] amounted to 0%; in the test with Setaria faberi (SETFA) [7], 90%; in [8], 90%; in [9] it was 100%. For the same compound, the inhibition at 30 g/ha turned out to be 0% in test [5]; 0% in test [6]; 80% in the test with Setaria faberi (SETFA) [7]; 70% in [8]; 90% in [9].
With `CC#Cc1cc(C)c(C2C(=O)N(CC)N(CC)C2=O)c(C)c1` [Compound A6], the inhibition at 250 g/ha in [10] is 30%; in test [1], 70%; in the test on Setaria faberi (SETFA) [2], 70%; in test [3], 50%; in test [4], 80%; in test [5], 30%. The inhibition at 250 g/ha in test [6] came out at 30%; in the test with Setaria faberi (SETFA) [7], 80%; in test [8], 80%; in test [9], 80%. Besides, the inhibition at 30 g/ha came out at 30% in [5]; 0% in [6]; 70% in the test on Setaria faberi (SETFA) [7]; 20% in test [8]; 40% in test [9].
With `CC#Cc1cc(C)c(C2C(=O)N3CCCCN3C2=O)c(C)c1` [Compound A18], the inhibition at 30 g/ha is 40% in [10]; 20% in [1]; 50% in the test on Setaria faberi (SETFA) [2]; 60% in test [3]; 60% in test [4]; 70% in test [5]. Moreover, the inhibition at 30 g/ha in [6] stood at 40%; with Setaria faberi (SETFA) [7] it was 70%; in test [8], 50%; in [9], 20%. The inhibition at 250 g/ha in [10] turned out to be 50%; in [1], 40%; in the test with Setaria faberi (SETFA) [2] it was 90%; in [3] it was 100%; in [4], 90%; in test [5], 80%. Besides, the inhibition at 250 g/ha in [6] was determined as 80%; in the test on Setaria faberi (SETFA) [7] it was 90%; in test [8], 80%; in test [9], 100%.
With `CC#Cc1cc(C)c(C2C(=O)N3CCOCCN3C2=O)c(C)c1` [Compound A28], the inhibition at 30 g/ha in test [10] was found to be 10%; in test [1], 20%; with Setaria faberi (SETFA) [2], 50%; in test [3] it was 70%; in test [4], 80%; in test [5] it was 60%. Further, the inhibition at 30 g/ha in test [6] stood at 10%; in the test on Setaria faberi (SETFA) [7], 70%; in test [8] it was 60%; in test [9] it was 80%. Further, the inhibition at 250 g/ha came out at 10% in test [10]; 30% in [1]; 100% in the test on Setaria faberi (SETFA) [2]; 100% in test [3]; 100% in test [4]; 70% in [5]. Besides, the inhibition at 250 g/ha in test [6] came to 30%; in the test on Setaria faberi (SETFA) [7], 100%; in test [8], 90%; in [9], 100%.
With `CC#Cc1cc(C)c(-c2c(OC(C)=O)n(C)n(C)c2=O)c(C)c1` [Compound P2], the inhibition at 250 g/ha in test [10] stood at 0%; in test [1], 70%; with Setaria faberi (SETFA) [2] it was 90%; in [3], 90%; in test [4] it was 100%; in test [5], 60%. Besides, the inhibition at 250 g/ha in [6] is 30%; in the test on Setaria faberi (SETFA) [7] it was 90%; in test [8], 90%; in test [9], 100%. Moreover, the inhibition at 30 g/ha came to 10% in test [5]; 0% in [6]; 40% with Setaria faberi (SETFA) [7]; 40% in test [8]; 80% in test [9].
On to `CC#Cc1cc(C)c(-c2c(OC(=O)C(C)(C)C)n3n(c2=O)CCCCC3)c(C)c1` [Compound P3, [2-(2,6-dimethyl-4-prop-1-ynyl-phenyl)-1-oxo-6,7,8,9-tetrahydro-5H-pyrazolo[1,2-a]diazepin-3-yl]2,2-dimethylpropanoate], for which the inhibition at 250 g/ha amounted to 10% in test [10]; 20% in test [1]; 70% in the test on Setaria faberi (SETFA) [2]; 20% in test [3]; 20% in [4]; 0% in test [5]. The inhibition at 250 g/ha was found to be 70% with Setaria faberi (SETFA) [7], 50% in [8] and 100% in [9]. In addition, the inhibition at 30 g/ha came to 10% in test [5]; 0% in [6]; 20% in the test with Setaria faberi (SETFA) [7]; 40% in test [8]; 60% in [9].
